From US20210147801A1, “METHODS FOR INCREASING EXPANSION AND IMMUNOSUPPRESSIVE CAPACITY OF A POPULATION OF CD8+CD45RCLOW/- TREGS” (INSERM (INSTITUT NATIONAL DE LA SANTÉ ET DE LA RECHERCHE …, priority 2017, published 2021)

How the values were obtained:
Format in all cases: cell-based, human
CD8+CD45RClow/- Tregs [1] = assay: Suppressive activity of drug-expanded Tregs on CD4+CD25- effector T cells stimulated with allogeneic APCs (CFSE); conditions: for suppressive activity of Tregs: Example 3, FIG. 3, Tregs harvested at day 14, 1:1:1 Tregs:Teff:APCs, same drug concentrations, vs no IS drug
Procedure: CD8^+CD45RC^low/− Tregs from fresh or thawed PBMCs were seeded at 3×10^5/ml in RPMI1640 medium supplemented with 10% AB serum, Penicillin (100 U/ml), Streptomycin (0.1 mg/ml), Sodium pyruvate (1 mM), Glutamine (2 mM), Hepes Buffer (1 mM), non-essential amino acids (1×), IL-2 (1000 U/ml) and IL-15 (10 ng/ml), and were stimulated with coated anti-CD3 mAb (1 μg/ml), soluble anti-CD28 mAb (1 μg/ml) and/or allogeneic APCs at 1:4 Tregs: APCs ratio. At day 7, expanded cells were diluted at 1.5×10^5/ml and stimulated again with coated anti-CD3 and soluble anti-CD28 mAbs (1 μg/ml each). […] At day 14, expanded Tregs were washed with PBS before use. Suppressive activity was tested on CD8^+CD45RC^low/− Tregs expanded more than 10 fold in […]. For long-term expansion, CD8^+CD45RC^low/− Tregs and CD4^+CD25^highCD127^low/− Tregs were stimulated again with coated anti-CD3 (1 μg/ml) and soluble anti-CD28 MAbs (1 μg/ml) at days 14 and 21 and IL-2 and IL-15 cytokines were freshly added every 2 days from day 7 to 28. Culture medium 1× cytokines (IL-2 (1000 U/ml) and IL-15 (10 ng/ml)) was added when required.
We tested the effect of immunosuppressive drugs (at concentrations used in the clinic) on CD8^+CD45RC^low/− Tregs survival 7 days following the 14 days expansion (FIG. 1) or on the expansion yield and suppressive function score of CD8^+CD45RC^low/− Tregs during the 14 days expansion (FIG. 3D).
Methods: Fresh blood was taken from 1 healthy volunteer, PBMCs were isolated by Ficoll centrifugation, washed in PBS, adjusted at 2×10^8 PBMC/ml in PBS-FCS-EDTA and were incubated with anti-CD3-PeCy7, anti CD4-PerCPCy5.5 and anti-CD45RC FITC 30′ 4° C. Cells were washed with PBS-FCS-EDTA, filtered on 60 μm tissue, labeled with Dapi and FACS Aria sorted on lymphocyte morphology, exclusion of doublet cells, and DAPI-CD3^+CD4^−CD45RC^low/− expression. […] At days 10 and 12, cytokines were freshly added. Expanded Tregs were harvested at day 14 for suppressive activity assessment. […] After 5 days culture, Teff proliferation was analyzed by CFSE analysis in DAPI^−CD4±CD3^+ T cells.

CD8+CD45RClow/- Tregs [2] = assay: Expansion of CD8+CD45RClow/- Tregs with anti-CD3/anti-CD28 in medium supplemented with immunosuppressive drugs (14 days); conditions: rapamycin 45 ng/ml, methylprednisolone 500 pg/ml, mycophenolate mofetil 1 μg/ml; for expansion yield: Example 3, FIG. 3, cyclosporine A 45 ng/ml, tacrolimus 2 ng/ml, vs no IS drug
Procedure: CD8^+CD45RC^low/− Tregs from fresh or thawed PBMCs were seeded at 3×10^5/ml in RPMI1640 medium supplemented with 10% AB serum, Penicillin (100 U/ml), Streptomycin (0.1 mg/ml), Sodium pyruvate (1 mM), Glutamine (2 mM), Hepes Buffer (1 mM), non-essential amino acids (1×), IL-2 (1000 U/ml) and IL-15 (10 ng/ml), and were stimulated with coated anti-CD3 mAb (1 μg/ml), soluble anti-CD28 mAb (1 μg/ml) and/or allogeneic APCs at 1:4 Tregs: APCs ratio. At day 7, expanded cells were diluted at 1.5×10^5/ml and stimulated again with coated anti-CD3 and soluble anti-CD28 mAbs (1 μg/ml each). […] At day 14, expanded Tregs were washed with PBS before use. Suppressive activity was tested on CD8^+CD45RC^low/− Tregs expanded more than 10 fold in 7 days. For long-term expansion, CD8^+CD45RC^low/− Tregs and CD4^+CD25^highCD127^low/− Tregs were stimulated again with coated anti-CD3 (1 μg/ml) and soluble anti-CD28 MAbs (1 μg/ml) at days 14 and 21 and IL-2 and IL-15 cytokines were freshly added every 2 days from day 7 to 28. Culture medium 1× cytokines (IL-2 (1000 U/ml) and IL-15 (10 ng/ml)) was added when required.

CD8+CD45RClow/- Tregs [3] = assay: Tregs associated markers expression at day 21 after 7 d culture in IS-supplemented medium; conditions: Example 4, FIG. 4, tacrolimus 2 ng/ml, compared to drug free medium
Procedure: Methods: Fresh blood was taken from 1 healthy volunteer, PBMCs were isolated by Ficoll centrifugation, washed in PBS, adjusted at 2×10^8 PBMC/ml in PBS-FCS-EDTA and were incubated with anti-CD3-PeCy7, anti CD4-PerCPCy5.5 and anti-CD45RC FITC 30′ 4° C. Cells were washed with PBS-FCS-EDTA, filtered on 60 μm tissue, labeled with Dapi and FACS Aria sorted on lymphocyte morphology, exclusion of doublet cells, and DAPI-CD3^+CD4^−CD45RC^low/− expression. […] At days 7, Tregs were harvested, counted, washed, and plated at 5×10^5Tregs/well/3 ml in p6 plate previously coated with anti-CD3 (OKT3 clone, 1 μg/ml in PBS, 1 ml/well, 1 h at 37° C. then washed with PBS 3 times), in RPMI1640 medium supplemented with 10% AB serum, Penicillin (100 U/ml), Streptomycin (0.1 mg/ml), Sodium pyruvate (1 mM), Glutamine (2 mM), Hepes Buffer (1 mM), non-essential amino acids (1×), IL-2 (1000 U/ml) and IL-15 (10 ng/ml), anti-CD28 mAbs (clone CD28.2, soluble, 1 μg/ml). […] Tregs were analyzed at day 21 for survival/expansion yield and phenotype.

| SMILES | suppression capacity (CD8+CD45RClow/- Tregs [1]; Example 1, FIG. 3D, Tregs expanded 14 days with drugs alone or subsequently, vs no immunosuppressor (NT)) | suppressive activity of Tregs (CD8+CD45RClow/- Tregs [1]) | expansion fold (CD8+CD45RClow/- Tregs [2]; Example 1, FIG. 3D, drugs added alone during 14 days or subsequently (day 0-7, then day 7-14), vs no immunosuppressor (NT)) | expansion yield (CD8+CD45RClow/- Tregs [2]) | IFNg expression by Tregs (CD8+CD45RClow/- Tregs [3]) |
| --- | --- | --- | --- | --- | --- |
| COc1c(C)c2c(c(O)c1C/C=C(\C)CCC(=O)OCCN1CCOCC1)C(=O)OC2 [mycophenolate mofetil] | decreased suppression | deleterious | inhibited the expansion by rapamycin | deleterious |  |
| C=CC[C@@H]1/C=C(\C)C[C@H](C)C[C@H](OC)[C@H]2O[C@@](O)(C(=O)C(=O)N3CCCC[C@H]3C(=O)O[C@H](/C(C)=C/[C@@H]3CC[C@@H](O)[C@H](OC)C3)[C@H](C)[C@@H](O)CC1=O)[C@H](C)C[C@@H]2OC [Tacrolimus, tacrolimus] |  | improved |  | improved | significantly decreased |
